Source: patent publication US20160209428A1, “DIAGNOSTIC AND PREDICTIVE METABOLITE PATTERNS FOR DISORDERS AFFECTING THE BRAIN AND NERVOUS SYSTEM” (THE REGENTS OF THE UNIVERSITY OF CALIFORNIA, priority 2013, published 2016)

Columns and labels:
[1] = tested on: Fragile X (Fmr1) knockout mouse; test: Plasma metabolomics after weekly suramin or saline, Fragile X model; assay type: in vivo; settings: for Suramin Treatment Effect (KO-Sur/KO-Sal): Fragile X KO
Experimental: Samples were analyzed on an AB SCIEX QTRAP 5500 triple quadrupole mass spectrometer equipped with a Turbo V electrospray ionization (ESI) source, Shimadzu LC-20A UHPLC system, and a PAL CTC autosampler (AB ACIEX, Framingham, Mass., USA). […] Plasma was separated by centrifugation at 600 g×5 minutes at 20° C. within one hour of collection. Fresh lithium-heparin plasma was transferred to labeled tubes for storage at −80° C. for analysis. Typically 45 μl of plasma was thawed on ice and transferred to a 1.7 ml Eppendorf tube. Two and one-half (2.5) μl of a cocktail containing 35 commercial stable isotope internal standards, and 2.5 μl of 310 stable isotope internal standards that were custom-synthesized in E. coli and S. cerevisiae by metabolic labeling with ^13C-glucose and ^13C-bicarbonate, were added, mixed, and incubated for 10 min at room temperature to permit small molecules and vitamins in the internal standards to associate with plasma binding proteins. Macromolecules (protein, DNA, RNA, etc.) were precipitated by extraction with 4 volumes (200 μl) of cold (−20° C.), acetonitrile:methanol (50:50) (LCMS grade, Cat#LC015-2.5 and GC230-4, Burdick & Jackson, Honeywell), vortexed vigorously, and incubated on crushed ice for 10 min, then removed by centrifugation at 16,000 g×10 min at 4° C. The supernatants containing the extracted metabolites and internal standards in the resulting 40:40:20 solvent mix of acetonitrile:methanol:water were transferred to labeled cryotubes and stored at −80° C. for LC-MS/MS (liquid chromatography-tandem mass spectrometry) analysis.
LC-MS/MS analysis was performed by multiple reaction monitoring (MRM) under Analyst v1.6.1 (AB SCIEX, Framingham, Mass., USA) software control in both negative and positive mode with rapid polarity switching (50 ms). Nitrogen was used for curtain gas (set to 30), collision gas (set to high), ion source gas 1 and 2 (set to 35). The source temperature was 500° C. Spray voltage was set to −4500 V in negative mode and 5500 V in positive mode. The values for Q1 and Q3 mass-to-charge ratios (m/z), declustering potential (DP), entrance potential (EP), collision energy (CE), and collision cell exit potential (CXP) were determined and optimized for each MRM for each metabolite. Ten microliters of extract was injected by PAL CTC autosampler into a 250 mm×2 mm, 5 μm Luna NH2 aminopropyl HPLC column (Phenomenex, Torrance, Calif., USA) held at 25° C. for chromatographic separation. […] The flow rate was 300 μl/min. All the samples were kept at 4° C. during analysis. The chromatographic peaks were identified using MultiQuant (v3.0, AB SCIEX), confirmed by manual inspection, and the peak areas integrated. The median of the peak area of stable isotope internal standards was calculated and used for the normalization of metabolites concentration across the samples and batches. Prior to multivariate and univariate analysis, the data were log-transformed.
A rendering of mammalian intermediary metabolism was constructed in Cytoscape v 3.1.1 (see, e.g., [http://]www.cytoscape.org/). […] Nodes in the Cytoscape network represent metabolites within the pathways and have been colored according to the Z-score. The Z-score was computed as the arithmetic difference between the mean concentration of each metabolite in the KO-Sur treatment group and the KO-Sal control group, divided by the standard deviation in the controls. Node colors were arranged on a red-green color scale with green representing −2.00 Z-score, red representing +2.00 Z-score, and with a zero (0) Z-score represented as white.
Group means and standard error of the means (SEM) are reported. Behavioral data were analyzed by two-way ANOVA and one-way ANOVAs (GraphPad Prism 5.0d, GraphPad Software Inc., La Jolla, Calif., USA, or Stata/SE v12.1, StataCorp, College Station, Tex., USA). Pair-wise post hoc testing was performed by the method of Tukey or Newman-Keuls. Significance was set at p<0.05.

[2] = tested on: maternal immune activation (MIA) mouse model; test: Rotarod (latency to fall), MIA model; assay type: in vivo; settings: MIA 6-month-old adults, single injection of suramin
Description: (N=8-13, 6.75-month-old males per group).
Previous studies have shown age-dependent, postnatal loss of cerebellar Purkinje cells in the MIA model. This can reach up to 60% of Purkinje cells lost by 4 months (16 weeks) of age. Motor coordination measured by rotarod performance is deficient in the MIA model and is critically dependent on the integrity of Purkinje cell circuits in the cerebellum. Since Purkinje cells are known to be lost in MIA animals by 4 months (16 weeks) of age, it was hypothesized that APT given later in life would have no effect. The results confirmed this. […] Although cerebellar Purkinje cell density was not quantified in this study, our results are consistent with the notion that once Purkinje cells are lost, their function cannot be restored by APT in adult animals.

Cc1ccc(C(=O)Nc2ccc(S(=O)(=O)O)c3cc(S(=O)(=O)O)cc(S(=O)(=O)O)c23)cc1NC(=O)c1cccc(NC(=O)Nc2cccc(C(=O)Nc3cc(C(=O)Nc4ccc(S(=O)(=O)O)c5cc(S(=O)(=O)O)cc(S(=O)(=O)O)c45)ccc3C)c2)c1 [Suramin, suramin]
Suramin Treatment Effect (KO-Sur/KO-Sal) ([1]; Bile Salt Metabolism, plasma): Increased
Suramin Treatment Effect (KO-Sur/KO-Sal) ([1]; Branch Chain Amino Acid Metabolism, plasma): Increased
Suramin Treatment Effect (KO-Sur/KO-Sal) ([1]; Cardiolipin Metabolism, plasma): Decreased
Suramin Treatment Effect (KO-Sur/KO-Sal) ([1]; Cholesterol, Cortisol, Non-Gonadal Steroid Metabolism, plasma): 2/2 Increased
Suramin Treatment Effect (KO-Sur/KO-Sal) ([1]; Eicosanoid and Resolvin Metabolism, plasma): 4/6 Increased
Suramin Treatment Effect (KO-Sur/KO-Sal) ([1]; Fatty Acid Oxidation and Synthesis, plasma): 9/9 Decreased
Suramin Treatment Effect (KO-Sur/KO-Sal) ([1]; Ganglioside Metabolism, plasma): 6/6 Increased
Suramin Treatment Effect (KO-Sur/KO-Sal) ([1]; Glycolysis and Gluconeogenesis, plasma): 2/2 Decreased
Suramin Treatment Effect (KO-Sur/KO-Sal) ([1]; Isoleucine, Valine, Threonine, or Methionine Metabolism, plasma): Increased
Suramin Treatment Effect (KO-Sur/KO-Sal) ([1]; Krebs Cycle, plasma): Increased
Suramin Treatment Effect (KO-Sur/KO-Sal) ([1]; Microbiome Metabolism, plasma): 2/3 Decreased
Suramin Treatment Effect (KO-Sur/KO-Sal) ([1]; Nitric Oxide, Superoxide, Peroxide Metabolism, plasma): Increased
Suramin Treatment Effect (KO-Sur/KO-Sal) ([1]; Pentose Phosphate, Gluconate Metabolism, plasma): Increased
Suramin Treatment Effect (KO-Sur/KO-Sal) ([1]; Phospholipid Metabolism, plasma): 6/6 Increased
Suramin Treatment Effect (KO-Sur/KO-Sal) ([1]; Purine Metabolism, plasma metabolites with VIP >=1.5, weekly suramin vs saline): 4/5 Decreased
Suramin Treatment Effect (KO-Sur/KO-Sal) ([1]; Pyrimidine Metabolism, plasma): Decreased
Suramin Treatment Effect (KO-Sur/KO-Sal) ([1]; SAM, SAH, Methionine, Cysteine, Glutathione Metabolism, plasma): 3/3 Increased
Suramin Treatment Effect (KO-Sur/KO-Sal) ([1]; Sphingolipid Metabolism, plasma): 3/5 Decreased
Suramin Treatment Effect (KO-Sur/KO-Sal) ([1]; Vitamin B3 (Niacin, NAD+) Metabolism, plasma): 1/2 Increased
Suramin Treatment Effect (KO-Sur/KO-Sal) ([1]; Vitamin B6 (Pyridoxine) Metabolism, plasma): Increased
Suramin Treatment Effect (KO-Sur/KO-Sal) ([1]; all 20 of 60 Pathways Dysregulated, top 58 metabolites, plasma): 33/58 Increased
acyl-carnitine species with generalized decrease ([1]; plasma, Fmr1 KO mice, suramin treatment): 9 of 9
biochemical pathways with pharmacometabolomic changes ([1]; plasma, Fmr1 KO mice, weekly suramin): 20 of 60
motor coordination (rotarod) [2]: failed to restore normal motor coordination
